Here are results for eleven compounds from ChEMBL document CHEMBL4118086, “Potential of PI3Kβ Inhibitors in the Treatment of Cancer and Other Diseases” (ACS Med Chem Lett, 2017).

The target of experiment [1] is Phosphatidylinositol 4,5-bisphosphate 3-kinase catalytic subunit gamma isoform (Homo sapiens, UniProt P48736). Nature of the experiment: Binding affinity to wild-type human PIK3Cgamma (S144 to A1102 residues) expressed in mammalian expression system by KINOMEScan assay.
Experiment [2] concerns the target Serine/threonine-protein kinase mTOR (Homo sapiens, UniProt P42345). Nature of the experiment: Binding affinity to wild-type human MTOR (L1382 to W2549 residues) expressed in mammalian expression system by KINOMEScan assay.
Experiment [3] has as its target T1, Phosphatidylinositol 4,5-bisphosphate 3-kinase catalytic subunit beta isoform (Homo sapiens, UniProt P42338). Nature of the experiment: Inhibition of PI3Kbeta in human PC3 cells assessed as reduction in AKT phosphorylation at S473 residue measured after 60 mins by ELISA. It counts as cell-based. A general note: In an ELISA, binding on a coated surface is turned into a signal by an enzyme label.

In experiment [4] the target is T1, Phosphatidylinositol 4,5-bisphosphate 3-kinase catalytic subunit beta isoform. Nature of the experiment: Inhibition of PI3Kbeta in human PC3 cells assessed as reduction in AKT phosphorylation at Thr308 residue measured after 60 mins by ELISA. It counts as cell-based.
Experiment [5] concerns the target Phosphatidylinositol 4,5-bisphosphate 3-kinase catalytic subunit alpha isoform (Homo sapiens, UniProt P42336). Nature of the experiment: Binding affinity to wild-type human PIK3Calpha (R108 to N1068 residues) expressed in mammalian expression system by KINOMEScan assay.
Experiment [6] has as its target T1, Phosphatidylinositol 4,5-bisphosphate 3-kinase catalytic subunit beta isoform. Nature of the experiment: Binding affinity to wild-type human PIK3Cbeta (P118 to S1070 residues) expressed in mammalian expression system by KINOMEScan assay.
Experiment [7] has as its target T2, Phosphatidylinositol 4,5-bisphosphate 3-kinase catalytic subunit delta isoform (Homo sapiens, UniProt O00329).
T2 sequence (O00329 whole entry): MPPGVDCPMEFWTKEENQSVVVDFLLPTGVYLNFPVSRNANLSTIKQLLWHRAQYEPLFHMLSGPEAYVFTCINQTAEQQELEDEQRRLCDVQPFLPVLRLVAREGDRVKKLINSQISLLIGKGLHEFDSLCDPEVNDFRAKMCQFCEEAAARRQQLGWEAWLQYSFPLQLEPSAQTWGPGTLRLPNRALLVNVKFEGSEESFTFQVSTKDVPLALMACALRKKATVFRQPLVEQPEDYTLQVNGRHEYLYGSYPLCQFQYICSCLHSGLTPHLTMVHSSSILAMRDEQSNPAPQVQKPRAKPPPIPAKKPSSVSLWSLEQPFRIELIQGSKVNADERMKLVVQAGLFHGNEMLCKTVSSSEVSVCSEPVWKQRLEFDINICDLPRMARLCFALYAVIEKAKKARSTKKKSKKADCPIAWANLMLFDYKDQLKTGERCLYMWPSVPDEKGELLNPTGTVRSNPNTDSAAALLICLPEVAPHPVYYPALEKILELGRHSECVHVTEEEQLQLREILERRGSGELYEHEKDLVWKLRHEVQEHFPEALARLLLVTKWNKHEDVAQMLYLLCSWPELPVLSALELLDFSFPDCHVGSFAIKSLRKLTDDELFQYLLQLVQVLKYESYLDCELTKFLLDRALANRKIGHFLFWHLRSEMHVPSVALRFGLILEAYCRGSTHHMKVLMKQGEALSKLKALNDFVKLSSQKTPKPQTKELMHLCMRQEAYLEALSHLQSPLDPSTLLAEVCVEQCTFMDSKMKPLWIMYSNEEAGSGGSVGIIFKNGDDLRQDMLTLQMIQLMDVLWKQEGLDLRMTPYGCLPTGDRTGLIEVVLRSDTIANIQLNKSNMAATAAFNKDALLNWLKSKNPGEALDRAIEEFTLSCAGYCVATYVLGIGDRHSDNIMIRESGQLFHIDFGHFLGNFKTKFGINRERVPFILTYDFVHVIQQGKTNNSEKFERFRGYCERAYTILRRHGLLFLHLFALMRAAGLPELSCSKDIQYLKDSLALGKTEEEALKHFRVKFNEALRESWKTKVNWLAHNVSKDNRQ
Nature of the experiment: Binding affinity to wild-type human PIK3Cdelta (R108 to Q1044 residues) expressed in mammalian expression system by KINOMEScan assay.

Phosphatidylinositol 4,5-bisphosphate 3-kinase catalytic subunit alpha isoform, sequence (P42336 whole entry, the tested form may be a part, canonical isoform): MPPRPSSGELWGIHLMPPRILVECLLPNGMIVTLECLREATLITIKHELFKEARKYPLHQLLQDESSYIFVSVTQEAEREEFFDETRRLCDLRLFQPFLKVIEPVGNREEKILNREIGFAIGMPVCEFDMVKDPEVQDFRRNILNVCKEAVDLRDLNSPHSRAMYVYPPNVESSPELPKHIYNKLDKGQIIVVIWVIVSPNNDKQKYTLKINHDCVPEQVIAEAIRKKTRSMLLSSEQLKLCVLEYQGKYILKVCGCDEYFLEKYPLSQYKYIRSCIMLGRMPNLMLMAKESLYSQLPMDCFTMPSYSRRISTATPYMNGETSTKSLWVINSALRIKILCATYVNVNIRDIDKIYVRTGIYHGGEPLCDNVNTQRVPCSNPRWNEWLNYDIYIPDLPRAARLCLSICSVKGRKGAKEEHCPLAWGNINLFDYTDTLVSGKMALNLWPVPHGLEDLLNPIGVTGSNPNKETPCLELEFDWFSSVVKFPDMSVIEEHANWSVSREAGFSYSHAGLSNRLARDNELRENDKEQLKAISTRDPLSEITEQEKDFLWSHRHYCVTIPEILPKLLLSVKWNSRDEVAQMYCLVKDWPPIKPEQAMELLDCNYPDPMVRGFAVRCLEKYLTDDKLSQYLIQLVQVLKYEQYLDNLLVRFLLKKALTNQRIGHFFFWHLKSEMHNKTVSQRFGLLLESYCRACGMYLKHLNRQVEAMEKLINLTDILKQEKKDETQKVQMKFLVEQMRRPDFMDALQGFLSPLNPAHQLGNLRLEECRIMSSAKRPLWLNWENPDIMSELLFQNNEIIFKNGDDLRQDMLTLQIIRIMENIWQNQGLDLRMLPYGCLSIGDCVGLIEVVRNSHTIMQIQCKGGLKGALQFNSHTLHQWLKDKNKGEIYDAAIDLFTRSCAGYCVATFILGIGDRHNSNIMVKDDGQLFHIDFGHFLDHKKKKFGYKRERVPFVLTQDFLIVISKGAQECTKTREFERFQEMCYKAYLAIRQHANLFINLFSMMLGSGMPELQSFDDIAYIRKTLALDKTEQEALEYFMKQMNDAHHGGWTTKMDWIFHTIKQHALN
T1 sequence (P42338 whole entry, canonical isoform): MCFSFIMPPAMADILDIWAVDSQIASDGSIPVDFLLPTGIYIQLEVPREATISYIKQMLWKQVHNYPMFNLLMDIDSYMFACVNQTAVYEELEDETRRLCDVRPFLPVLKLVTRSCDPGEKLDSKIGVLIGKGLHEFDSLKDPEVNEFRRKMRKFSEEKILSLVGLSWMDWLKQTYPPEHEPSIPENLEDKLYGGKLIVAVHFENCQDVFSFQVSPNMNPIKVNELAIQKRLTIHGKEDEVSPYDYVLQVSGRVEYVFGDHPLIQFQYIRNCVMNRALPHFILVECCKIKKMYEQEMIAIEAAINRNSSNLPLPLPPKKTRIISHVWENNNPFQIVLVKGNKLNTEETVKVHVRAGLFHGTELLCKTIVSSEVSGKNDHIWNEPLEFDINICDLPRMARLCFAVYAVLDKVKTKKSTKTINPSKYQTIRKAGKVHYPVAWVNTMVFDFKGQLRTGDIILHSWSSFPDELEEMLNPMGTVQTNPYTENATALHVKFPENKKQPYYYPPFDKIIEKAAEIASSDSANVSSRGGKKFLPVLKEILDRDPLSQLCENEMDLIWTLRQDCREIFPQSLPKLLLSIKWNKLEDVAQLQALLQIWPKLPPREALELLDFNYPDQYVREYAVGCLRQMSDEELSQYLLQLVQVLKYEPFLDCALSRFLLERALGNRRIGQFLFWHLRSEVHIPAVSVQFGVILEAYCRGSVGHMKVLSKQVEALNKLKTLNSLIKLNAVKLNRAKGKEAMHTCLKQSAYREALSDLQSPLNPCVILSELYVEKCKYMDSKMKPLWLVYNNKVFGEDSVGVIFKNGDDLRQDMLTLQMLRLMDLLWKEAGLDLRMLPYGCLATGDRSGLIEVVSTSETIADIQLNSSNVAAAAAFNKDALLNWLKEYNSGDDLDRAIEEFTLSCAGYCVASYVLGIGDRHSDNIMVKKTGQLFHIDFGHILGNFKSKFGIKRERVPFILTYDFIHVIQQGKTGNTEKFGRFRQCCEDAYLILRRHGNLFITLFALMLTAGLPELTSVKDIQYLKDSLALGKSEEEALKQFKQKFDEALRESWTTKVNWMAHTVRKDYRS
Phosphatidylinositol 4,5-bisphosphate 3-kinase catalytic subunit gamma isoform, sequence (P48736 whole entry, the tested form may be a part, canonical isoform): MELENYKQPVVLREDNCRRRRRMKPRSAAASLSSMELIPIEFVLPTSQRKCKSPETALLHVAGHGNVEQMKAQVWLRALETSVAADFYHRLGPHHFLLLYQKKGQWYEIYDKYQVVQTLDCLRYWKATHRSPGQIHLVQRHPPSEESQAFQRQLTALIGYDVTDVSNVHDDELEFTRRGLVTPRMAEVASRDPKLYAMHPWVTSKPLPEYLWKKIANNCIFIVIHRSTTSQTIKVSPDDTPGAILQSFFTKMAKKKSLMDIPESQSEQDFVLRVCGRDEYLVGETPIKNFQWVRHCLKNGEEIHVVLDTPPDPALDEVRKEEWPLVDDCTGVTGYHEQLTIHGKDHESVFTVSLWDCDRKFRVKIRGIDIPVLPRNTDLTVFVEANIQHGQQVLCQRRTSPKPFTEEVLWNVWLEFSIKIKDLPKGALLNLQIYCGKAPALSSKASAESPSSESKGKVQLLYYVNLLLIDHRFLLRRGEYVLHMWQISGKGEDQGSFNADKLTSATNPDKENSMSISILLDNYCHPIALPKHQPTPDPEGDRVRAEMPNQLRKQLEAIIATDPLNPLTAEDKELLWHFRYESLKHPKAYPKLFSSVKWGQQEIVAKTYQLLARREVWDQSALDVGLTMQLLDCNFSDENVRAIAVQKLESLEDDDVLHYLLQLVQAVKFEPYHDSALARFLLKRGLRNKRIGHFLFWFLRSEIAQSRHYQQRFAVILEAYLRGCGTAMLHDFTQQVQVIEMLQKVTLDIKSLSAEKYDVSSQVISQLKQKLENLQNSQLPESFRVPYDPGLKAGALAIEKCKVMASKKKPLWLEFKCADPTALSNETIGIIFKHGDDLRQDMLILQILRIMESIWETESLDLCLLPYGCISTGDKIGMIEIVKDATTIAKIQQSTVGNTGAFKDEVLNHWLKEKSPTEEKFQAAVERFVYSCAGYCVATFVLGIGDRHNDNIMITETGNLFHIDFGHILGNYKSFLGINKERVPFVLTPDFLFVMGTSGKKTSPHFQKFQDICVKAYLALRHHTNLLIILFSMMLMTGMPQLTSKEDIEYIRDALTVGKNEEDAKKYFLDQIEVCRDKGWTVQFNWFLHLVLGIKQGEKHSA

What is called Kd is the constant that tells how readily two partners part at equilibrium. Read a low Kd as tighter binding. By IC50 is commonly meant the concentration that gives 50% inhibition. Consider `CN(C)C(=O)c1cc([C@@H]2CCCN2c2cc(F)cc(F)c2)c2nc(N3CCOCC3)cnc2c1`, for which the Kd in experiment [1] and in experiment [2] was above 30200 nM each time. The concentration for half-maximal inhibition (IC50) in experiment [3] and in experiment [4] was above 513 nM throughout.

Regarding `Cc1c(F)cccc1NCc1cc(C(=O)NCCN(C)C)cc2ncc(N3CCOCC3)nc12`, the Kd in experiment [5] was found to be 1910 nM; in experiment [6] it was 0.2 nM; in experiment [7], 324 nM; in experiment [1] it was 6610 nM; in experiment [2] it was 17800 nM. Further, the IC50 in experiment [3] and in experiment [4] was 9 nM each time.

For the compound `C[C@@H](Nc1cccc(F)c1)c1cc(C(=O)NCCO)cc2ncc(N3CCOCC3)nc12`, the Kd in experiment [5] is 1100 nM; in experiment [6] it was 3 nM; in experiment [7] it was 324 nM; in experiment [1], 3410 nM; in experiment [2], 17100 nM. Further, the IC50 is 49 nM in experiment [3] and 44 nM in experiment [4].

On to `C[C@@H](Nc1cc(F)cc(F)c1)c1cc(C(=O)NCCN(C)C)cc2ncc(N3CCOCC3)nc12`, for which the IC50 in experiment [3] and in experiment [4] was 2 nM throughout.

For the compound `C[C@H](Nc1cc(F)cc(F)c1)c1cc(C(=O)NCCN(C)C)cc2ncc(N3CCOCC3)nc12`, the dissociation constant (Kd) in experiment [2] was above 30200 nM. Besides, the values for the IC50 in experiment [3] and in experiment [4] were 331 nM and 148 nM, respectively.

As to `C[C@H](Nc1cccc(F)c1)c1cc(C(=O)NCCO)cc2ncc(N3CCOCC3)nc12`, in experiment [2], the dissociation constant Kd was above 30200 nM. Besides, the IC50 in experiment [3] and in experiment [4] was above 513 nM throughout.

For `CN(C)C(=O)c1cc([C@H]2CCCN2c2cc(F)cc(F)c2)c2nc(N3CCOCC3)cnc2c1`, the Kd is 34 nM in experiment [5]; 0.3 nM in experiment [6]; 15 nM in experiment [7]; 313 nM in experiment [1]; 28200 nM in experiment [2]. For the same compound, the IC50 in experiment [3] came out at 2 nM; in experiment [4], 3 nM.

For the compound `C[C@@H]1CN(C(=O)c2cc(C3CCCN3c3cc(F)cc(F)c3)c3nc(N4CCOCC4)cnc3c2)C[C@H](C)N1` (mixture of isomers), the Kd in experiment [5] was 14 nM; in experiment [6], 0.2 nM; in experiment [7] it was 7 nM; in experiment [1], 214 nM; in experiment [2], above 30200 nM. The IC50 amounted to 7 nM in experiment [3] and 5 nM in experiment [4].

As to `CC(Nc1cc(F)cc(F)c1)c1cc(C(=O)NCCN(C)C)cc2ncc(N3CCOCC3)nc12` (racemic), the Kd in experiment [2] was above 30200 nM. Moreover, the 50% inhibitory concentration (IC50) in experiment [3] came out at 6 nM; in experiment [4], 3 nM.

With `CNCCNC(=O)c1cc(C(C)Nc2cccc(F)c2)c2nc(N3CCOCC3)cnc2c1` (racemic), the IC50 in experiment [3] stood at 7 nM; in experiment [4], 6 nM.

For `CN(C)C(=O)c1cc(C2CCCN2c2cc(F)cc(F)c2)c2nc(N3CCOCC3)cnc2c1` (racemic), the Kd in experiment [2] is above 30200 nM. In addition, the IC50 in experiment [3] came out at 4 nM; in experiment [4], 1.35 nM.
